Data taken from patent US20250057801A1, “Methods for Treating Traumatic Brain Injury” (The Government of the United States, as Represented by the …, priority 2023, published 2025).

Tests used:
[1] = system: penetrating brain injury (PTBI); assay: Mitochondrial bioenergetics (Seahorse XFe96 Flux Analyzer) in injury core mitochondria after PTBI; assay type: in vivo, male Sprague-Dawley rats; conditions: compared to VEH
Method: (§1) Three experimental groups (N=4-8 male Sprague-Dawley rats/group) were studied. The first group was a sham group in which there was no penetrating brain injury and no treatment with resveratrol triacetate (RES). The second group was subject to a penetrating brain injury (via probe insertion and balloon inflation) and treated with dimethyl sulfoxide, DMSO (vehicle, VEH) and dosed at 15 minutes and 6 hours after injury and then once daily. The third group was subject to a penetrating brain injury and treated with RES and dosed at 15 minutes and six hours after injury and then once daily.
(§2) After 60 minutes of the last dosing at either 24 hours or 3 days post-injury, fresh viable mitochondria were isolated from the injury core of rats' brain. Homogenate fractions were collected for a glutathione assay.
(§3) Mitochondrial bioenergetics parameters were measured using a high-throughput procedure of the Seahorse XFe96 Flux Analyzer. The glutathione content was measured using a 5,5′-dithiobis-(2-nitrobenzoic acid) (DTNB) cycling method/assay. Antioxidant and oxidative stress were measured by a Western blot (WB) analysis.
(§4) Graphs and statistical analysis were performed using GraphPad Prism program. Data are presented as mean±SEM (standard error of means). ANOVA with Fisher post-hoc test was used to evaluate significant difference at * p<0.05 vs. Sham; $ p<0.05 vs. Vehicle (N=4-8 animals/group).

[2] = system: penetrating brain injury (PTBI); assay: Total glutathione content (DTNB cycling assay) in brain homogenate after PTBI; assay type: in vivo, male Sprague-Dawley rats; conditions: 24 hours post-PTBI
Method: as §1, §2, §3, §4

[3] = system: penetrating brain injury (PTBI); assay: Western blot of antioxidant, oxidative stress, membrane integrity and apoptosis markers after PTBI; assay type: in vivo, male Sprague-Dawley rats
Method: as §1, §2, §3, §4

[4] = in vivo; cited from earlier work
[5] = cited from earlier work

Compound	bioenergetics in injured core mitochondria, as measured by ATP synthesis ([1]; 24 hours post-PTBI)	bioenergetics in injured core mitochondria ([1]; 3 days post-PTBI)	total glutathione (GSH) content [2]	Cytochrome C (CYT C) expression compared to VEH ([3]; 24 hours post-PTBI)	catalase (CAT) expression compared to VEH ([3]; 24 hours post-PTBI)	glyceraldehyde 3-phosphate dehydrogenase (GAPDH) expression compared to VEH ([3]; 24 hours post-PTBI)	lipid peroxidation marker 4-hydroxynonenal (4-HNE) adduct formation compared to VEH ([3]; 24 hours post-PTBI)	superoxide dismutase (SOD) expression compared to VEH ([3]; 24 hours post-PTBI)	thioredoxin (TRX) expression compared to VEH ([3]; 24 hours post-PTBI)	CAT expression compared to VEH ([3]; 3 days post-PTBI)	CYT C expression compared to VEH ([3]; 3 days post-PTBI)	SOD expression compared to VEH ([3]; 3 days post-PTBI)	anti-apoptotic protein Bcl-2 expression compared to VEH ([3]; 3 days post-PTBI)	voltage-dependent anion channels (VDAC) expression compared to VEH ([3]; 3 days post-PTBI)	half-life [4]	water solubility [5]
CC(=O)Oc1ccc(/C=C/c2cc(OC(C)=O)cc(OC(C)=O)c2)cc1 [RES, 3′,5′,4′-tri-o-acetyl resveratrol]	trend of improved bioenergetics	non-significant trend of bioenergetics improvement	reversed PTBI-induced downregulation of total glutathione (GSH) content	+105%	−62%	−16.5%	non-significant improvement	+42%	+38%	−30%	+64%	+90%	+104%	+47%	–	–
Oc1ccc(C=Cc2cc(O)cc(O)c2)cc1 [Resveratrol]	–	–	–	–	–	–	–	–	–	–	–	–	–	–	8 to 14 min	low water solubility
